Consider 27 compounds from patent publication US10023570B2 (Array BioPharma, Inc., priority 2015, dated 2018).

Counter-ions that a name gives are not always drawn.

Sequence of human KDR protein in HEK-293 cells (P35968 20-1356): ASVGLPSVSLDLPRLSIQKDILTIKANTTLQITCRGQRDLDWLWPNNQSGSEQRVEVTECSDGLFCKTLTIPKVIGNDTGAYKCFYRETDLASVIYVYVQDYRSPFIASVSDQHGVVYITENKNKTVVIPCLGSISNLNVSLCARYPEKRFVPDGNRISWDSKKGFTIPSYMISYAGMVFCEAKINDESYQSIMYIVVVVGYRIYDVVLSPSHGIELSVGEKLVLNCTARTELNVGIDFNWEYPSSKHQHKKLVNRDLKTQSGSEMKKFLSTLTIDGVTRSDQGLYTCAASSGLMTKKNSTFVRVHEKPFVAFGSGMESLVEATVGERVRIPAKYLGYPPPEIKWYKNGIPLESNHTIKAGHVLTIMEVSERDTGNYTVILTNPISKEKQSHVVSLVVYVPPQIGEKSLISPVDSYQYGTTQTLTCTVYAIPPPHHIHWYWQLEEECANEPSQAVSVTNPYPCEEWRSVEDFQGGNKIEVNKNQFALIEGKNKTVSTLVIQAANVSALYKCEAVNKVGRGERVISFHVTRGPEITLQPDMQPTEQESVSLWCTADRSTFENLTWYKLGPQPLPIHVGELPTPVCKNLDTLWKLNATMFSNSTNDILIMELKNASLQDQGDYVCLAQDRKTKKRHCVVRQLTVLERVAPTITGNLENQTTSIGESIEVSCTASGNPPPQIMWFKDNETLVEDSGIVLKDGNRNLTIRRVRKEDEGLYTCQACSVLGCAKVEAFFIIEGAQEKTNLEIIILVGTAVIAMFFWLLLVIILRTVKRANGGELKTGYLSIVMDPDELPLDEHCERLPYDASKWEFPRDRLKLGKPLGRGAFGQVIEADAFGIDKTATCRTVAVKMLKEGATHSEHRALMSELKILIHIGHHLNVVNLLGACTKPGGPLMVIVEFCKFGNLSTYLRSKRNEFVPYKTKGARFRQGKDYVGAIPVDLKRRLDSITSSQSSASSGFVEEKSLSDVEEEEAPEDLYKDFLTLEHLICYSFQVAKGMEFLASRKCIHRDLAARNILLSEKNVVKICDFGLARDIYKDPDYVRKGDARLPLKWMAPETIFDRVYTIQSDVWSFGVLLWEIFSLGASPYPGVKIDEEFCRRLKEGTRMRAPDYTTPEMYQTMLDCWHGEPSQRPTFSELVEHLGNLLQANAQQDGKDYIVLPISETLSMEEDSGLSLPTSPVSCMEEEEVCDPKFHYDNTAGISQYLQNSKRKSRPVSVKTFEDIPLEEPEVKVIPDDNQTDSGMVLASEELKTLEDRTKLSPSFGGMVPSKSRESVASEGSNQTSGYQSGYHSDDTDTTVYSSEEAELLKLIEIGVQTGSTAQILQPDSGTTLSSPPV

One experiment has as its target human KDR protein in HEK-293 cells (Homo sapiens (Human), UniProt P35968). The experiment can be described thus: KDR Cell Assay (phospho-KDR in HEK-293 cells expressing inducible KDR). In kind it is cell-based. The note with it: pKDR Cell HEK 10% FBS IC50, HEK-293 cells expressing inducible KDR, VEGF stimulated. An outline of the steps: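 HEK-293 cells with inducible human KDR were treated with compound for 1 h in DMEM (0.25% DMSO final), then lysed. Phospho-KDR was quantified by Meso Scale immunoassay, expressed as percent of control, and IC50 taken where a 4-parameter logistic fit crossed 50 POC.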
The compound `Cn1cc(-c2cc(-c3ccc(N4CCN(CCc5ccccc5)CC4)nc3)c3c(C#N)cnn3c2)cn1` [Example 411, 6-(1-methyl-1H-pyrazol-4-yl)-4-(6-(4-phenethylpiperazin-1-yl)pyridin-3-yl)pyrazolo[1,5-a]pyridine-3-carbonitrile] showed an IC50 of 263 nM.

On to `Cn1cc(-c2cc(-c3ccc(N4CCN(Cc5c(F)cccc5F)CC4)nc3)c3c(C#N)cnn3c2)cn1` [Example 441, 4-(6-(4-(2,6-difluorobenzyl)piperazin-1-yl)pyridine-3-yl)-6-(1-methyl-1H-pyrazol-4-yl)pyrazolo[1,5-a]pyridine-3-carbonitrile], for which the IC50 worked out at 576 nM. For the compound `CC(C)n1cc(CN2CCN(c3ccc(-c4cc(-c5cnn(C)c5)cn5ncc(C#N)c45)cn3)CC2)cn1` [Example 445, 4-(6-(4-((1-isopropyl-1H-pyrazol-4-yl)methyl)piperazin-1-yl)pyridin-3-yl)-6-(1-methyl-1H-pyrazol-4-yl)pyrazolo[1,5-a]pyridine-3-carbonitrile], half-maximal inhibition (IC50) required 1660 nM. Compound `C[C@@H](c1ccccc1)N1CCN(c2ccc(-c3cc(-c4cnn(C)c4)cn4ncc(C#N)c34)cn2)CC1` [Example 422, (S)-6-(1-methyl-1H-pyrazol-4-yl)-4-(6-(4-(1-phenylethyl)piperazin-1-yl)pyridine-3-yl)pyrazolo[1,5-a]pyridine-3-carbonitrile dihydrochloride] showed an IC50 of 942 nM. `Cn1cc(-c2cc(-c3ccc(N4CCC5(CC4)CC(NC(=O)OC(C)(C)C)C5)nc3)c3c(C#N)cnn3c2)cn1` [Example 516, tert-butyl (7-(5-(3-cyano-6-(1-methyl-1H-pyrazol-4-yl)pyrazolo[1,5-a]pyridin-4-yl)pyridin-2-yl)-7-azaspiro[3.5]nonan-2-yl)carbamate] came in with an IC50 of 173 nM.

In the case of `Cn1cc(-c2cc(-c3ccc(N4CCC5(CN(C(=O)OC(C)(C)C)C5)C4)nc3)c3c(C#N)cnn3c2)cn1` [Example 521, tert-butyl 6-(5-(3-cyano-6-(1-methyl-1H-pyrazol-4-yl)pyrazolo[1,5-a]pyridin-4-yl)pyridin-2-yl)-2,6-diazaspiro[3.4]octane-2-carboxylate], the IC50 was 675 nM.

The experiment is the same for the next values; noted with them: pKDR Cell HEK 10% FBS IC50, HEK-293 cells expressing inducible KDR, VEGF stimulated, 10% FBS.
Turning to `CN(C)CC(=O)N1CCN(c2ccc(-c3cc(-c4cnn(C)c4)cn4ncc(C#N)c34)cc2)CC1` [Example 296, 4-(4-(4-(2-(dimethylamino)acetyl)piperazin-1-yl)phenyl)-6-(1-methyl-1H-pyrazol-4-yl)pyrazolo[1,5-a]pyridine-3-carbonitrile], the IC50 was 2350 nM. The compound `Cn1cc(-c2cc(-c3ccc(N4[C@@H]5CC[C@H]4C[C@@H](NC(=O)OC(C)(C)C)C5)nc3)c3c(C#N)cnn3c2)cn1` [Example 194, tert-butyl ((1R,3r,5S)-8-(5-(3-cyano-6-(1-methyl-1H-pyrazol-4-yl)pyrazolo[1,5-a]pyridin-4-yl)pyridin-2-yl)-8-azabicyclo[3.2.1]octan-3-yl)carbamate] came in with a half-inhibitory concentration (IC50) of 242 nM. In turn, `Cn1cc(-c2cc(-c3ccc(N4CCC5(CC4)CN(C(=O)c4ccccc4)C5)nc3)c3c(C#N)cnn3c2)cn1` [Example 217, 4-(6-(2-benzoyl-2,7-diazaspiro[3.5]nonan-7-yl)pyridin-3-yl)-6-(1-methyl-1H-pyrazol-4-yl)pyrazolo[1,5-a]pyridine-3-carbonitrile] came in with a 50% inhibitory concentration (IC50) of 1670 nM. Still for that read-out and setting: then `Cn1cc(-c2cc(-c3ccc(N4CCN(CC(O)c5ccc(Cl)cc5)CC4)nc3)c3c(C#N)cnn3c2)cn1` (stereo not drawn) [Example 152, 4-(6-(4-(2-(4-chlorophenyl)-2-hydroxyethyl)piperazin-1-yl)pyridin-3-yl)-6-(1-methyl-1H-pyrazol-4-yl)pyrazolo[1,5-a]pyridine-3-carbonitrile], with 207 nM; and `Cn1cc(-c2cc(-c3ccc(N4CCN(C(=O)CO)CC4)cc3)c3c(C#N)cnn3c2)cn1` [Example 293, 4-(4-(4-(2-hydroxyacetyl)piperazin-1-yl)phenyl)-6-(1-methyl-1H-pyrazol-4-yl)pyrazolo[1,5-a]pyridine-3-carbonitrile hydrochloride], with 532 nM. `C[C@H](O)Cn1cc(-c2cc(-c3ccc(N4CCN(C(=O)CC(C)(C)C)CC4)cc3)c3c(C#N)cnn3c2)cn1` [Example 304, (S)-4-(4-(4-(3,3-dimethylbutanoyl)piperazin-1-yl)phenyl)-6-(1-(2-hydroxypropyl)-1H-pyrazol-4-yl)pyrazolo[1,5-a]pyridine-3-carbonitrile] gave an IC50 of 1610 nM.

Consider `Cn1cc(-c2cc(-c3ccc(N4CCC5(CC4)CN(C(=O)Cc4ccccc4)C5)nc3)c3c(C#N)cnn3c2)cn1` [Example 218, 6-(1-methyl-1H-pyrazol-4-yl)-4-(6-(2-(2-phenylacetyl)-2,7-diazaspiro[3.5]nonan-7-yl)pyridin-3-yl)pyrazolo[1,5-a]pyridine-3-carbonitrile], for which the IC50 was found to be 4790 nM. For `Cn1cc(-c2cc(-c3ccc(N4[C@@H]5CC[C@H]4C[C@@H](N)C5)nc3)c3c(C#N)cnn3c2)cn1` [Example 195, 4-(6-((1R,3r,5S)-3-amino-8-azabicyclo[3.2.1]octan-8-yl)pyridin-3-yl)-6-(1-methyl-1H-pyrazol-4-yl)pyrazolo[1,5-a]pyridine-3-carbonitrile dihydrochloride], the half-maximal inhibitory concentration (IC50) was 247 nM. As to `C[C@H]([C@H](O)c1ccccc1)N1CCN(c2ccc(-c3cc(-c4cnn(C)c4)cn4ncc(C#N)c34)cn2)CC1` [Example 147, 4-(6-(4-((1R,2R)-1-hydroxy-1-phenylpropan-2-yl)piperazin-1-yl)pyridin-3-yl)-6-(1-methyl-1H-pyrazol-4-yl)pyrazolo[1,5-a]pyridine-3-carbonitrile], inhibition was half-maximal at 1290 nM (IC50). `CC(C)NC(=O)[C@@H]1CN(c2ccc(-c3cc(-c4cnn(C)c4)cn4ncc(C#N)c34)cn2)CCO1` [Example 228, (S)-4-(5-(3-cyano-6-(1-methyl-1H-pyrazol-4-yl)pyrazolo[1,5-a]pyridin-4-yl)pyridin-2-yl)-N-isopropylmorpholine-2-carboxamide]: the IC50 is 4530 nM. Take `Cn1cc(-c2cc(-c3ccc(N4CCN([C@@H]5CCCC[C@H]5O)CC4)nc3)c3c(C#N)cnn3c2)cn1` [Example 155, 4-(6-(4-((1r,2r)-2-hydroxycyclohexyl)piperazin-1-yl)pyridin-3-yl)-6-(1-methyl-1H-pyrazol-4-yl)pyrazolo[1,5-a]pyridine-3-carbonitrile]: the IC50 is 979 nM. The same measure, in the same setting: next, `Cn1cc(-c2cc(-c3ccc(N4CCN(C(=O)N5CCCCC5)CC4)nc3)c3c(C#N)cnn3c2)cn1` [Example 93, 6-(1-methyl-1H-pyrazol-4-yl)-4-(6-(4-(piperidine-1-carbonyl)piperazin-1-yl)pyridin-3-yl)pyrazolo[1,5-a]pyridine-3-carbonitrile]: 1700 nM; `Cn1cc(-c2cc(-c3ccc(C4CCN(C(=O)CC(C)(C)C)CC4)cc3)c3c(C#N)cnn3c2)cn1` [Example 302, 4-(4-(1-(3,3-dimethylbutanoyl)piperidin-4-yl)phenyl)-6-(1-methyl-1H-pyrazol-4-yl)pyrazolo[1,5-a]pyridine-3-carbonitrile]: 2990 nM. The same measure, in the same setting: then `Cn1cc(-c2cc(-c3ccc(N4CCN(CC(O)c5c(F)cccc5F)CC4)nc3)c3c(C#N)cnn3c2)cn1` (stereo not drawn) [Example 154, 4-(6-(4-(2-(2,6-difluorophenyl)-2-hydroxyethyl)piperazin-1-yl)pyridin-3-yl)-6-(1-methyl-1H-pyrazol-4-yl)pyrazolo[1,5-a]pyridine-3-carbonitrile], with 155 nM; and `Cn1cc(-c2cc(-c3ccc(N4CCN(C(=O)NC5CC5)CC4)nc3)c3c(C#N)cnn3c2)cn1` [Example 131, 4-(5-(3-cyano-6-(1-methyl-1H-pyrazol-4-yl)pyrazolo[1,5-a]pyridin-4-yl)pyridin-2-yl)-N-cyclopropylpiperazine-1-carboxamide 2,2,2-trifluoroacetate], with 447 nM; and `Cn1cc(-c2cc(-c3ccc(N4CCN(CCc5ccc(Cl)cc5)CC4)nc3)c3c(C#N)cnn3c2)cn1` [Example 140, 4-(6-(4-(4-chlorophenethyl)piperazin-1-yl)pyridin-3-yl)-6-(1-methyl-1H-pyrazol-4-yl)pyrazolo[1,5-a]pyridine-3-carbonitrile], with 712 nM. Compound `Cn1cc(-c2cc(-c3ccc(N4CCC(N5CCCC5=O)CC4)nc3)c3c(C#N)cnn3c2)cn1` [Example 189, 6-(1-methyl-1H-pyrazol-4-yl)-4-(6-(4-(2-oxopyrrolidin-1-yl)piperidin-1-yl)pyridin-3-yl)pyrazolo[1,5-a]pyridine-3-carbonitrile] registered an IC50 of 255 nM. In turn, `Cn1cc(-c2cc(-c3ccc(N4CCOCC4)nc3)c3c(C#N)cnn3c2)cn1` [Example 224, 6-(1-methyl-1H-pyrazol-4-yl)-4-(6-morpholinopyridin-3-yl)pyrazolo[1,5-a]pyridine-3-carbonitrile] had an IC50 of 555 nM. On to `Cn1cc(-c2cc(-c3ccc(N4CCN(C(=O)Cc5cccnc5)CC4)nc3)c3c(C#N)cnn3c2)cn1` [Example 71, 6-(1-methyl-1H-pyrazol-4-yl)-4-(6-(4-(2-(pyridin-3-yl)acetyl)piperazin-1-yl)pyridin-3-yl)pyrazolo[1,5-a]pyridine-3-carbonitrile], for which the IC50 was found to be 503 nM. The same measure, in the same setting: then `Cn1cc(-c2cc(-c3ccc(N4CCC(N5CC[C@H](O)C5=O)CC4)nc3)c3c(C#N)cnn3c2)cn1` [Example 190, (S)-4-(6-(4-(3-hydroxy-2-oxopyrrolidin-1-yl)piperidin-1-yl)pyridin-3-yl)-6-(1-methyl-1H-pyrazol-4-yl)pyrazolo[1,5-a]pyridine-3-carbonitrile], with 277 nM. With `Cn1cc(-c2cc(-c3ccc(N4CCN(C(=O)C(O)c5ccccc5F)CC4)nc3)c3c(C#N)cnn3c2)cn1` (stereo not drawn) [Example 10, 4-(6-(4-(2-(2-fluorophenyl)-2-hydroxyacetyl)piperazin-1-yl)pyridin-3-yl)-6-(1-methyl-1H-pyrazol-4-yl)pyrazolo[1,5-a]pyridine-3-carbonitrile], half-maximal inhibition (IC50) required 47.4 nM.

For orientation: IC50 means the concentration needed to halve the response being measured. A higher IC50 goes with weaker potency.
